Laboratory results taken from US20210147498A1, “USE OF GRAM-NEGATIVE LYSIN-ANTIMICROBIAL PEPTIDE (AMP) POLYPEPTIDE CONSTRUCTS IN PULMONARY SURFACTANT AND BIOFILMS” (priority 2018, published 2021).
Read-outs that look alike come from different tables or passages of the source.

Tested on: carbapenem-resistant P. aeruginosa strains
Assay: microbe, parasite or virus in culture
Type: cell-based, Pseudomonas aeruginosa
Conditions: for MIC: Pseudomonas aeruginosa; for MIC Combination / MIC Alone: vs. WC-452
Description: Such resensitization may be determined by combining the present lysins or lysin-AMP polypeptide constructs with an antibiotic in a checkerboard assay as described herein. Antibiotic-resistant bacteria, such as carbapenem-resistant P. aeruginosa, are added to the lysin or lysin-AMP polypeptide construct combination. […] See Clinical and Laboratory Standards Institute (CLSI), CLSI. […] M100 Performance Standards for Antimicrobial Susceptibility Testing; 29th Edition. Clinical and Laboratory Standards Institute, Wayne, Pa., which is herein incorporated by reference in its entirety.
Up to seven carbapenem-resistant isolates were assessed. […] See Clinical and Laboratory Standards Institute (CLSI), CLSI. […] M100 Performance Standards for Antimicrobial Susceptibility Testing; 29th Edition. Clinical and Laboratory Standards Institute, Wayne, Pa.

C[C@@H](O)[C@H]1C(=O)N2C(C(=O)O)=C(SCCN=CN)C[C@H]12 [Imipenem, imipenem]
MIC (GN121, read-out: MIC (μg/mL) Alone, isolate PA20, checkerboard Imipenem + GN121): 16 µg/mL
MIC (GN121, read-out: MIC (μg/mL) Alone, isolate PA21, checkerboard Imipenem + GN121): 32 µg/mL
MIC (GN121, read-out: MIC (μg/mL) Alone, isolate PA23, checkerboard Imipenem + GN121): 16 µg/mL
MIC (GN123, read-out: MIC (μg/mL) Alone, isolate PA19, checkerboard IMIPENEM + GN123): 32 µg/mL
MIC (GN123, read-out: MIC (μg/mL) Alone, isolate PA20, checkerboard IMIPENEM + GN123): 16 µg/mL
MIC (GN123, read-out: MIC (μg/mL) Alone, isolate PA21, checkerboard IMIPENEM + GN123): 32 µg/mL
MIC (GN123, read-out: MIC (μg/mL) Alone, isolate PA22, checkerboard IMIPENEM + GN123): 16 µg/mL
MIC (GN123, read-out: MIC (μg/mL) Alone, isolate PA23, checkerboard IMIPENEM + GN123): 8 µg/mL
MIC (GN123, read-out: MIC (μg/mL) Alone, isolate PA24, checkerboard IMIPENEM + GN123): 32 µg/mL
MIC (GN123, read-out: MIC (μg/mL) Alone, isolate WC-452, checkerboard IMIPENEM + GN123): 16 µg/mL
susceptibility category of the isolate, carbapenem Alone (isolate PA19): (R) ((R) = resistant)
MIC (μg/mL) Combination (isolate PA19, IMIPENEM combined with GN123): 0.5 µg/mL
MIC (μg/mL) Combination (isolate PA19, Imipenem combined with GN121): 1 µg/mL
susceptibility category of the isolate, carbapenem in Combination (isolate PA19, combined with GN121): (S) ((S) = sensitive)
susceptibility category of the isolate, carbapenem in Combination (isolate PA19, combined with GN123): (S) ((S) = sensitive)
susceptibility category of the isolate, carbapenem Alone (isolate PA20): (R) ((R) = resistant)
MIC (μg/mL) Combination (isolate PA20, IMIPENEM combined with GN123): 1 µg/mL
MIC (μg/mL) Combination (isolate PA20, Imipenem combined with GN121): 0.5 µg/mL
susceptibility category of the isolate, carbapenem in Combination (isolate PA20, combined with GN121): (S) ((S) = sensitive)
susceptibility category of the isolate, carbapenem in Combination (isolate PA20, combined with GN123): (S) ((S) = sensitive)
susceptibility category of the isolate, carbapenem Alone (isolate PA21): (R) ((R) = resistant)
MIC (μg/mL) Combination (isolate PA21, IMIPENEM combined with GN123): 0.5 µg/mL
MIC (μg/mL) Combination (isolate PA21, Imipenem combined with GN121): 1 µg/mL
susceptibility category of the isolate, carbapenem in Combination (isolate PA21, combined with GN121): (S) ((S) = sensitive)
susceptibility category of the isolate, carbapenem in Combination (isolate PA21, combined with GN123): (S) ((S) = sensitive)
susceptibility category of the isolate, carbapenem Alone (isolate PA22): (R) ((R) = resistant)
MIC (μg/mL) Combination (isolate PA22, IMIPENEM combined with GN123): 2 µg/mL
MIC (μg/mL) Combination (isolate PA22, Imipenem combined with GN121): 2 µg/mL
susceptibility category of the isolate, carbapenem in Combination (isolate PA22, combined with GN121): (S) ((S) = sensitive)
susceptibility category of the isolate, carbapenem in Combination (isolate PA22, combined with GN123): (S) ((S) = sensitive)
susceptibility category of the isolate, carbapenem Alone (isolate PA23): (R) ((R) = resistant)
MIC (μg/mL) Combination (isolate PA23, IMIPENEM combined with GN123): 0.25 µg/mL
MIC (μg/mL) Combination (isolate PA23, Imipenem combined with GN121): 0.125 µg/mL
susceptibility category of the isolate, carbapenem in Combination (isolate PA23, combined with GN121): (S) ((S) = sensitive)
susceptibility category of the isolate, carbapenem in Combination (isolate PA23, combined with GN123): (S) ((S) = sensitive)
susceptibility category of the isolate, carbapenem Alone (isolate PA24): (R) ((R) = resistant)
MIC (μg/mL) Combination (isolate PA24, IMIPENEM combined with GN123): 2 µg/mL
MIC (μg/mL) Combination (isolate PA24, Imipenem combined with GN121): 1 µg/mL
susceptibility category of the isolate, carbapenem in Combination (isolate PA24, combined with GN121): (S) ((S) = sensitive)
susceptibility category of the isolate, carbapenem in Combination (isolate PA24, combined with GN123): (S) ((S) = sensitive)
susceptibility category of the isolate, carbapenem Alone (isolate WC-452): (R) ((R) = resistant)
MIC (μg/mL) Combination (isolate WC-452, IMIPENEM combined with GN123): 1 µg/mL
susceptibility category of the isolate, carbapenem in Combination (isolate WC-452, combined with GN123): (S) ((S) = sensitive)
susceptibility category of the isolate, carbapenem in Combination (isolate WC-452, combined with GN351): (S) ((S) = sensitive)
susceptibility category of the isolate, carbapenem in Combination (isolate WC-452, combined with GN370): (S) ((S) = sensitive)
susceptibility category of the isolate, carbapenem in Combination (isolate WC-452, combined with GN428): (S) ((S) = sensitive)
MIC Combination (IPM combined with GN351): 0.5 µg/mL
MIC Combination (IPM combined with GN370): 0.5 µg/mL
MIC Combination (IPM combined with GN428): 1 µg/mL
MIC Alone (checkerboard IPM + GN351): 16 µg/mL
MIC Alone (checkerboard IPM + GN370): 16 µg/mL
MIC Alone (checkerboard IPM + GN428): 16 µg/mL
